Measurements from the supplement of paper PMC10307832.

What was measured:
Assay in all cases: relative viability (nuclei count vs DMSO), 5 days (fraction); higher = more cells survive
Dovitinib + Palbociclib = compound: CN1CCN(c2ccc3nc(-c4c(N)c5c(F)cccc5[nH]c4=O)[nH]c3c2)CC1 [Dovitinib] + CC(=O)c1c(C)c2cnc(Nc3ccc(N4CCNCC4)cn3)nc2n(C2CCCC2)c1=O [Palbociclib] (partner 0.5 µM)
Procedure, shortened: (§1)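 The day after seeding in 1536-well plates, lung cancer cell lines were treated by pin tool with a single drug, or with a fixed anchor-drug dose together with five library-drug doses (not always all listed) in √10 steps. After 5 days, a combined fix-and-stain solution (final 0.05% Triton X-100, 1% formaldehyde, 1 ug/ml Hoechst) was added. Nuclei counted on 4× images gave relative viability as treated counts over vehicle counts, reported as the median of duplicate plates.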

Dovitinib + Crizotinib = compound: CN1CCN(c2ccc3nc(-c4c(N)c5c(F)cccc5[nH]c4=O)[nH]c3c2)CC1 [Dovitinib] + C[C@@H](Oc1cc(-c2cnn(C3CCNCC3)c2)cnc1N)c1c(Cl)ccc(F)c1Cl [Crizotinib] (partner 1 µM)
Procedure, shortened: as §1

Dovitinib + AZD7762 = compound: CN1CCN(c2ccc3nc(-c4c(N)c5c(F)cccc5[nH]c4=O)[nH]c3c2)CC1 [Dovitinib] + NC(=O)Nc1cc(-c2cccc(F)c2)sc1C(=O)N[C@H]1CCCNC1 [AZD7762] (partner 0.2 µM)
Procedure, shortened: as §1

Dovitinib + Vorinostat = compound: CN1CCN(c2ccc3nc(-c4c(N)c5c(F)cccc5[nH]c4=O)[nH]c3c2)CC1 [Dovitinib] + O=C(CCCCCCC(=O)Nc1ccccc1)NO [Vorinostat] (partner 1 µM)
Procedure, shortened: as §1

| Cell Line | relative viability (Dovitinib + Palbociclib; first compound 0.02 µM) | relative viability (Dovitinib + Palbociclib; first compound 0.06325 µM) | relative viability (Dovitinib + Palbociclib; first compound 0.2 µM) | relative viability (Dovitinib + Palbociclib; first compound 0.6325 µM) | relative viability (Dovitinib + Palbociclib; first compound 2 µM) | relative viability (Dovitinib + Crizotinib; first compound 0.02 µM) | relative viability (Dovitinib + Crizotinib; first compound 0.06325 µM) | relative viability (Dovitinib + Crizotinib; first compound 0.2 µM) | relative viability (Dovitinib + Crizotinib; first compound 0.6325 µM) | relative viability (Dovitinib + Crizotinib; first compound 2 µM) | relative viability (Dovitinib + AZD7762; first compound 0.02 µM) | relative viability (Dovitinib + AZD7762; first compound 0.06325 µM) | relative viability (Dovitinib + AZD7762; first compound 0.2 µM) | relative viability (Dovitinib + AZD7762; first compound 0.6325 µM) | relative viability (Dovitinib + AZD7762; first compound 2 µM) | relative viability (Dovitinib + Vorinostat; first compound 0.02 µM) | relative viability (Dovitinib + Vorinostat; first compound 0.06325 µM) | relative viability (Dovitinib + Vorinostat; first compound 0.2 µM) | relative viability (Dovitinib + Vorinostat; first compound 0.6325 µM) | relative viability (Dovitinib + Vorinostat; first compound 2 µM) |
| --- | --- | --- | --- | --- | --- | --- | --- | --- | --- | --- | --- | --- | --- | --- | --- | --- | --- | --- | --- | --- |
| HCC-366 | 0.377 | 0.364 | 0.372 | 0.396 | 0.402 | 0.571 | 0.6 | 0.486 | 0.61 | 0.562 | 0.155 | 0.301 | 0.297 | 0.239 | 0.357 | 0.325 | 0.353 | 0.338 | 0.429 | 0.385 |
| HCC-827 | 0.527 | 0.461 | 0.409 | 0.53 | 0.528 | 0.91 | 0.867 | 0.932 | 0.93 | 0.94 | 0.203 | 0.213 | 0.244 | 0.237 | 0.212 | 0.799 | 0.867 | 0.876 | 0.841 | 0.805 |
| IA-LM |  |  |  |  |  | 0.678 | 0.838 | 0.73 | 0.722 | 0.682 |  |  |  |  |  | 0.962 | 0.883 | 1.13 | 0.973 | 0.897 |
| NCI-H520 | 0.206 | 0.213 | 0.214 | 0.266 | 0.162 | 0.746 | 0.724 | 0.782 | 0.781 | 0.798 |  |  |  |  |  | 0.765 | 0.698 | 0.62 | 0.656 | 0.643 |
| NCI-H522 | 1.07 | 1.05 | 0.972 | 1.19 | 1.06 |  |  |  |  |  | 0.704 | 0.81 | 0.878 | 0.813 | 0.974 | 0.811 | 0.848 | 0.923 | 0.837 | 1.01 |
| NCI-H596 |  |  |  |  |  | 0.989 | 0.916 | 1.11 | 1.14 | 0.984 | 1.17 | 1.09 | 1 | 1.03 | 1.1 | 0.746 | 0.606 | 0.569 | 0.517 | 0.694 |
| NCI-H661 | 0.414 | 0.453 | 0.429 | 0.426 | 0.432 | 0.915 | 0.863 | 0.928 | 0.942 | 0.891 |  |  |  |  |  | 0.733 | 0.837 | 0.826 | 0.938 | 0.843 |
| NCI-H1299 |  |  |  |  |  | 0.941 | 0.968 | 0.915 | 0.942 | 1.01 |  |  |  |  |  |  |  |  |  |  |
| NCI-H1395 | 0.608 | 0.575 | 0.661 | 0.605 | 0.652 |  |  |  |  |  | 0.425 | 0.366 | 0.435 | 0.374 | 0.398 | 0.678 | 0.622 | 0.787 | 0.811 | 0.924 |
| NCI-H1563 |  |  |  |  |  | 0.829 | 0.855 | 0.839 | 0.838 | 0.814 |  |  |  |  |  |  |  |  |  |  |
| NCI-H1648 | 0.325 | 0.287 | 0.235 | 0.247 | 0.255 |  |  |  |  |  | 0.497 | 0.717 | 0.661 | 0.701 | 0.634 | 0.402 | 0.422 | 0.425 | 0.361 | 0.516 |
| NCI-H1650 | 0.392 | 0.338 | 0.328 | 0.349 | 0.386 | 0.945 | 1.02 | 1.06 | 1.14 | 1.02 |  |  |  |  |  | 0.569 | 0.432 | 0.785 | 0.703 | 0.554 |
| NCI-H1703 |  |  |  |  |  | 0.651 | 0.836 | 0.779 | 0.547 | 0.31 | 0.132 | 0.0996 | 0.125 | 0.114 | 0.146 |  |  |  |  |  |
| NCI-H1792 | 0.642 | 0.668 | 0.684 | 0.583 | 0.643 | 0.998 | 0.977 | 0.997 | 1.04 | 0.971 | 0.559 | 0.761 | 0.676 | 0.796 | 0.559 |  |  |  |  |  |
| NCI-H1793 | 0.365 | 0.297 | 0.311 | 0.299 | 0.311 |  |  |  |  |  | 0.453 | 0.316 | 0.505 | 0.306 | 0.53 | 1.01 | 0.753 | 0.751 | 0.891 | 0.773 |
| NCI-H2009 | 0.203 | 0.202 | 0.291 | 0.353 | 0.244 | 0.919 | 1.06 | 1.04 | 1.03 | 1.12 |  |  |  |  |  | 0.72 | 0.744 | 0.747 | 0.736 | 0.829 |
| NCI-H2023 | 0.357 | 0.359 | 0.388 | 0.345 | 0.359 | 0.55 | 0.604 | 0.591 | 0.573 | 0.481 |  |  |  |  |  | 0.532 | 0.745 | 0.818 | 0.683 | 0.579 |
| NCI-H2228 | 0.763 | 0.815 | 0.696 | 0.79 | 0.678 | 0.399 | 0.379 | 0.436 | 0.454 | 0.367 |  |  |  |  |  | 0.559 | 0.81 | 0.402 | 0.79 | 0.6 |
| NCI-H2342 | 0.621 | 0.517 | 0.553 | 0.621 | 0.537 |  |  |  |  |  | 0.561 | 0.583 | 0.488 | 0.8 | 0.473 | 0.738 | 0.71 | 0.781 | 0.717 | 0.735 |
| SK-LU-1 | 0.39 | 0.372 | 0.358 | 0.481 | 0.38 | 0.835 | 0.984 | 0.86 | 0.958 | 0.974 |  |  |  |  |  | 0.753 | 0.913 | 0.759 | 0.715 | 0.805 |
| SK-MES-1 | 0.35 | 0.378 | 0.306 | 0.37 | 0.374 | 1.04 | 0.957 | 0.932 | 1.01 | 0.954 |  |  |  |  |  | 1.08 | 1.13 | 1.17 | 1.09 | 1.12 |
| SW 1573 | 0.402 | 0.421 | 0.435 | 0.348 | 0.386 | 0.773 | 0.809 | 0.805 | 0.749 | 0.804 |  |  |  |  |  | 0.65 | 0.908 | 0.6 | 0.702 | 1.02 |
| UMC-11 | 0.334 | 0.34 | 0.346 | 0.343 | 0.348 | 0.636 | 0.716 | 0.576 | 0.514 | 0.733 |  |  |  |  |  | 0.449 | 0.422 | 0.478 | 0.383 | 0.431 |
